Assay results taken from patent US8263605B2, “Modulators of muscarinic receptors” (Vertex Pharmaceutical Incorporated, priority 2006, dated 2012).

What was measured:
[1] = target: T1, M4 muscarinic receptor (Homo sapiens, UniProt P08173); assay: Functional mobilization of intracellular calcium (FLIPR), M4-CHO cells; type: cell-based; conditions: for Emax: 100% efficacy is the maximum response obtained with the Carbachol control; for M4 Activity: CHO cells expressing M4, calcium mobilization
T1 construct: expressed in transfected cells; host or cells: CHO (M4-CHO)
T1 sequence (P08173 1-479): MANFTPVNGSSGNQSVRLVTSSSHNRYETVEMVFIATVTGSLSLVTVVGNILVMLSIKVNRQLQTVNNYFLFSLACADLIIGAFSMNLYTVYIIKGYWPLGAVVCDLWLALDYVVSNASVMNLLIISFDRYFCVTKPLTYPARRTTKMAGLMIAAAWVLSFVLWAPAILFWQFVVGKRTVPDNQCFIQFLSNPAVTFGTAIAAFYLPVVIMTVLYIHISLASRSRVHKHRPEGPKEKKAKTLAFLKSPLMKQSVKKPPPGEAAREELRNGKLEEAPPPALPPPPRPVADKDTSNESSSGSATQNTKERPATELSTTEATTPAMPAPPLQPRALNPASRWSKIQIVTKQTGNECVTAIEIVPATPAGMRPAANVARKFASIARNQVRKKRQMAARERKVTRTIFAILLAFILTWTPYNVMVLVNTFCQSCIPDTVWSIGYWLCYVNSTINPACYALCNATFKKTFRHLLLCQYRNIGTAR
Protocol: (§1) Functional Mobilization of Intracellular Calcium to Determine Muscarinic Receptor Activity:
(§2) CHO cells expressing muscarinic receptors (M1 to M5) are grown as monolayers in tissue culture flasks at 37° C. in a humidified atmosphere containing 5% CO2 and passaged every 3-5 days. The growth media is Dulbecco's modified eagles medium (DMEM, Gibco Cat#12430-054), containing 25 mM Hepes and supplemented with Fetal Bovine Serum (Hyclone, cat# SH30071.03), 0.1 mM of MEM non-essential amino acids (GIBCO, Cat#11140-050), 1 mM MEM Sodium Pyruvate (GIBCO Cat#11360-070) and 100 units/ml of Penicillin G and 100 μg/ml of Streptomycin (GIBCO Cat#15140-122). The recombinant muscarinic receptor cell lines are grown under antibiotic pressure with media containing 25 μg/ml zeocin and 500 μg/ml G418 (M1-CHO), 4 μg/ml puromycin, 50 μg/ml zeocin and 2.5 μg/ml blasticidin (M2 and M4-CHO) or 50 μg/ml zeocin and 4 μg/ml puromycin (M3 and M5-CHO).
(§3) Cells are harvested at 80-90% confluence using Versene (GIBCO Cat#15040-066), collected by centrifugation and seeded 18-24 hours prior to running the calcium assay at a density of 5,000-10,000 cells/well in […], clear-bottomed 384-well plates (BD Biocoat, poly-D-lysine, Cat#356663). The day of the experiment, the cells are washed with a plate washer (Bioteck Instrunents, ELX 405) using bath 1 buffer (140-mM NaCl, 4.5-mM KCl, 2-mM CaCl2, 1-mM MgCl2, 10-mM Hepes-Na, 10-mM Glucose, pH 7.4, with NaOH) containing 1 mM Probenecid. Next, the calcium dye Fluo-3 (25 μl/well of Fluo-3 AM at 4 μM, Molecular Probes F-1241, in Bath 1 buffer containing 1 mM Probenecid) is added to the 25 μl of Bath 1 remaining in each well after the plate wash and the dye is loaded at 37° C. in the tissue culture incubator for 60-90 min. The fluorescent dye is removed using the plate washer with Bath 1 containing 1 mM Probenecid, leaving 25 μl/well of this solution after the wash. Alternatively, cells can be loaded with the calcium indicator from Molecular Devices (Calcium 3 Assay Reagents, Cat # R7181) adding 5 μl of a 5× solution dye in Bath 1 containing 1 mM Probenecid (10 ml per dye flask cat# R7182 to generate a solution 20×) to 20 μl of the same buffer. After loading for 60 min, the experiment can be run without having to remove the dye.
(§4) Compounds are prepared at a 2× fold concentration in a 96-well plate (round bottom, Costar Corning cat#3656), by reconstituting the pre-spotted compounds in bath 1 containing 1 mM probenecid. The final concentration DMSO is 0.5%, and the amount of DMSO is normalized across the assay plate. To determine an agonist action of the compounds on muscarinic receptors, the reconstituted compounds are added (25 μl compound/well) to the cell assay plate (containing 25 μl/well) using the multi-channel robotic system of the FLIPR 3 Instrument (Molecular Devices, Sunnyvale, Calif.). To determine a functional inhibitory action of the compounds on muscarinic receptors, the reconstituted compounds are added (25 μl compound/well) to the assay plate and pre-incubated for 15 min prior to adding 25 μl of Carbachol at 3× the EC80 for each muscarinic subtype. Alternatively, the compounds can be co-applied simultaneously with the agonist. In both assay modes, the fluorescence is recorded for 60 sec (excitation wavelength is […] and emission wavelength 540 nm) using the FLIPR 3 instrument.
(§5) The potency, efficacy and selectivity of the muscarinic compounds were evaluated by screening the compound activity across the whole family (M1 to M5 cells). Compounds were also screened for activity on other proteins such as other GPCRs and ion channels to determine selectivity on M4 receptors.
(§6) Examples of activities and efficacies of the muscarinic compounds of formulae (I, Ia, Ib, Ic, Id, and Ie) on modulating M1 and M4 receptors are shown below in Table 4. […]

[2] = target: T2, M1 muscarinic receptor (Homo sapiens, UniProt P11229); assay: Functional mobilization of intracellular calcium (FLIPR), M1-CHO cells; type: cell-based; conditions: for Emax: 100% efficacy is the maximum response obtained with the Carbachol control; for M1 Activity: CHO cells expressing M1, calcium mobilization
T2 construct: expressed in transfected cells; host or cells: CHO (M1-CHO)
T2 sequence (P11229 1-460): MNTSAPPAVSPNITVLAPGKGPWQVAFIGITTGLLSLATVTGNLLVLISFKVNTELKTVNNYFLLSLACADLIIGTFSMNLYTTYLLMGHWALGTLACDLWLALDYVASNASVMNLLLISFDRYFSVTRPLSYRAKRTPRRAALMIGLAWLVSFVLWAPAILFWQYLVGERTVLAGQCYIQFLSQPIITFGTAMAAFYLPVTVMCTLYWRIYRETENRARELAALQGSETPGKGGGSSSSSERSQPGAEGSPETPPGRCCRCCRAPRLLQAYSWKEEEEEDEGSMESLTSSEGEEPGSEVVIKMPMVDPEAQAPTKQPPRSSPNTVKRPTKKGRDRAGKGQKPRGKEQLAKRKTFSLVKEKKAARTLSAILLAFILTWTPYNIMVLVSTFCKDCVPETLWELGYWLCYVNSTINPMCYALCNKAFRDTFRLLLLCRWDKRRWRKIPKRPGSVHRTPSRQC
Protocol: as §1, §2, §3, §4, §5, §6

SMILES | Emax [1] | M4 Activity [1] | Emax [2] | M1 Activity [2]
CN(C)C(=O)N[C@H]1CC2(CCN(C3CC4CC[C@@H]3C4)CC2)c2ccccc21 (stereo in doubt) [Compound No. 119, 3-((S)-1′-((1R,2S,4S)-bicyclo[2.2.1]heptan-2-yl)-2,3-dihydrospiro[indene-1,4′-piperidine]-3-yl)-1,1-dimethylurea] | 25 to 100% | +++ (activity was measured to be less than 2.0 μM) | < 25% | + (activity was measured to be greater than 10.0 μM)
CC#CCOC(=O)N1CCC(N2CCC3(CCN(C(=O)N(C)C)c4ccccc43)CC2)CC1 [Compound No. 5, but-2-ynyl 4-(1′-(dimethylcarbamoyl)-2′,3′-dihydro-1′H-spiro[piperidine-4,4′-quinoline]-1-yl)piperidine-1-carboxylate] | 25 to 100% | +++ (activity was measured to be less than 2.0 μM) | 25 to 100% | +++ (activity was measured to be less than 2.0 μM)
Cc1cncc(N2CCC(N3CCC4(CCN(C(=O)N(C)C)c5ccccc54)CC3)CC2)n1 [Compound No. 9, N,N-dimethyl-1-(1-(6-methylpyrazin-2-yl)piperidin-4-yl)-2′,31-dihydrospiro[piperidine-4,4′-quinoline]-1′-carboxamide] | 25 to 100% | +++ (activity was measured to be less than 2.0 μM) | 25 to 100% | +++ (activity was measured to be less than 2.0 μM)
CCOC(=O)N1CCC(N2CCC3(CCN(C(C)=O)c4ccccc43)CC2)CC1 [Compound No. 11, ethyl 4-(1′-acetyl-2′,3′-dihydro-1′H-spiro[piperidine-4,4′-quinoline]-1-yl)piperidine-1-carboxylate] | > 100% | +++ (activity was measured to be less than 2.0 μM) | > 100% | +++ (activity was measured to be less than 2.0 μM)
Cc1ncc(N2CCC(N3CCC4(CCN(C(=O)N(C)C)c5ccccc54)CC3)CC2)nc1C [Compound No. 20, 1-(1-(5,6-dimethylpyrazin-2-yl)piperidin-4-yl)-N,N-dimethyl-2′,3′-dihydrospiro[piperidine-4,4′-quinoline]-1′-carboxamide] | 25 to 100% | +++ (activity was measured to be less than 2.0 μM) | 25 to 100% | ++ (activity was measured to be from 2.0 μM to 10.0 μM)
C#CCOC(=O)N1C2CCC1CC(N1CCC3(CCN(C(=O)N(C)C)c4ccccc43)CC1)C2 (stereo not shown) [Compound No. 28, prop-2-ynyl 3-(1′-(dimethylcarbamoyl)-2′,3′-dihydro-1′H-spiro[piperidine-4,4′-quinoline]-1-yl)-8-azabicyclo[3.2.1]octane-8-carboxylate] | 25 to 100% | +++ (activity was measured to be less than 2.0 μM) | 25 to 100% | +++ (activity was measured to be less than 2.0 μM)
CCc1nsc(N2C3CCC2CC(N2CCC4(CCN(C(=O)N(C)C)c5ccccc54)CC2)C3)n1 (stereo not shown) [Compound No. 32, 1-(8-(3-ethyl-1,2,4-thiadiazol-5-yl)-8-azabicyclo[3.2.1]octan-3-yl)-N,N-dimethyl-2′,3′-dihydro-1′ H-spiro[piperidine-4,4′-quinoline]-1′-carboxamide] | 25 to 100% | +++ (activity was measured to be less than 2.0 μM) | 25 to 100% | +++ (activity was measured to be less than 2.0 μM)
CCOC(=O)N1CCC(N2CCC3(CC2)CN(C(=O)N(C)C)c2ccccc23)CC1 [Compound No. 39, ethyl 4-(1-(dimethylcarbamoyl)spiro[indoline-3,4′-piperidine]-1′-yl)piperidine-1-carboxylate] | 25 to 100% | +++ (activity was measured to be less than 2.0 μM) | 25 to 100% | +++ (activity was measured to be less than 2.0 μM)
Cc1nsc(N2C3CCC2CC(N2CCC4(CC2)CN(C(=O)N(C)C)c2ccccc24)C3)n1 (stereo not shown) [Compound No. 65, N,N-dimethyl-1′-(8-(3-methyl-1,2,4-thiadiazol-5-yl)-8-azabicyclo[3.2.1]octan-3-yl)spiro[indoline-3,4′-piperidine]-1-carboxamide] | 25 to 100% | +++ (activity was measured to be less than 2.0 μM) | 25 to 100% | +++ (activity was measured to be less than 2.0 μM)
CN(C)C(=O)N1CC2(CCN(C3CC4CCC(C3)N4c3cnccn3)CC2)c2ccccc21 (stereo not shown) [Compound No. 103, N,N-dimethyl-1′-(8-(pyrazin-2-yl)-8-azabicyclo[3.2.1]octan-3-yl)spiro[indoline-3,4′-piperidine]-1-carboxamide] | > 100% | +++ (activity was measured to be less than 2.0 μM) | 25 to 100% | +++ (activity was measured to be less than 2.0 μM)
CCOC(=O)N1C2CCC1CC(N1CCC3(CCN(C(C)=O)c4ccccc43)CC1)C2 (stereo not shown) [compound 1] | 25 to 100% | +++ (activity was measured to be less than 2.0 μM) | 25 to 100% | +++ (activity was measured to be less than 2.0 μM)
COC(=O)N1CCC(N2CCC3(CCN(C(=O)N(C)C)c4ccccc43)CC2)CC1 [compound 2] | 25 to 100% | +++ (activity was measured to be less than 2.0 μM) | 25 to 100% | +++ (activity was measured to be less than 2.0 μM)
CCOC(=O)N1CCC(N2CCC3(CCN(C(=O)N(C)C)c4ccccc43)CC2)CC1 [compound 3] | > 100% | +++ (activity was measured to be less than 2.0 μM) | 25 to 100% | +++ (activity was measured to be less than 2.0 μM)
